Assay results taken from ChEMBL document CHEMBL3526091, “Pharmacokinetics, metabolism, and excretion of the glycogen synthase kinase-3 inhibitor LY2090314 in rats, dogs, and humans: a case study in rapid clearance by extensive metabolism with low circulating metabolite exposure” (Drug Metab Dispos, 2013).

Experiments:
[1] = Drug uptake in beagle […] blood at 5 mg/kg, iv administered for 30 mins; type: ADME, organism-based, Canis lupus familiaris; set-up: dose 5 mg/kg, dosed compound name [14C]LY2090314, route intravenous; details: in vivo, 0.5 h
[2] = tested on: Canis familiaris; assay: Tmax in beagle dog assessed as total radioactivity at 5 mg/kg, iv administered for 30 mins; type: ADME, organism-based, Canis lupus familiaris; set-up: dose 5 mg/kg, dosed compound name [14C]LY2090314, route intravenous; details: in vivo, 0.5 h
[3] = Elimination half life in beagle dog at 5 mg/kg, iv administered for 30 mins; type: ADME, organism-based, Canis lupus familiaris; set-up: dose 5 mg/kg, dosed compound name [14C]LY2090314, route intravenous; details: in vivo, read-out: beta t1/2 (converted)
[4] = Tmax in Sprague-Dawley rat at 5 mg/kg, iv administered for 30 mins; type: ADME, organism-based; set-up: dose 5 mg/kg, dosed compound name [14C]LY2090314, route intravenous; details: in vivo
[5] = Drug metabolism in Mrp2 knockout Sprague-Dawley rat bile at 5 mg/kg, iv administered for 30 mins; type: ADME, organism-based; set-up: dose 5 mg/kg, dosed compound name LY2090314, route intravenous; details: in vivo, 0.5 h
[6] = Drug recovery in bile duct-cannulated Sprague-Dawley rat bile at 5 mg/kg, iv administered for 30 mins during 0 to 168 hrs time interval by radio analysis; type: ADME, organism-based; set-up: dose 5 mg/kg, dosed compound name [14C]LY2090314, route intravenous; details: in vivo
[7] = Elimination half life in Sprague-Dawley rat at 5 mg/kg, iv administered for 30 mins; type: ADME, organism-based; set-up: dose 5 mg/kg, dosed compound name [14C]LY2090314, route intravenous; details: in vivo, read-out: beta t1/2 (converted)
[8] = tested on: Plasma; assay: Drug metabolism in Mdr1a knockout Sprague-Dawley rat plasma at 5 mg/kg, iv administered for 30 mins; type: ADME, organism-based; set-up: dose 5 mg/kg, dosed compound name LY2090314, route intravenous; details: in vivo, 0.5 h
[9] = Drug recovery in bile duct-intact beagle dog assessed as radioactivity in feces during 0 to 48 hrs at 5 mg/kg, iv administered for 30 mins; type: ADME, organism-based, Canis lupus familiaris; set-up: dose 5 mg/kg, dosed compound name [14C]LY2090314, route intravenous; details: in vivo
[10] = Volume of distribution at steady state in cancer patient at 120 mg for 60 mins treated 1/1 cycle/day; type: ADME, organism-based; set-up: dosed compound name LY2090314; details: human, in vivo, read-out: Vdss
[11] = Cmax in cancer patient at 20 mg for 60 mins treated 1/1 cycle/day; type: ADME, organism-based; set-up: dose 20 mg, dosed compound name LY2090314; details: human, in vivo
[12] = Volume of distribution at steady state in cancer patient at 80 mg for 60 mins treated 1/8 cycle/day; type: ADME, organism-based; set-up: dosed compound name LY2090314; details: human, in vivo, read-out: Vdss
[13] = tested on: Canis familiaris; assay: Cmax in beagle dog assessed as total radioactivity at 5 mg/kg, iv administered for 30 mins; type: ADME, organism-based, Canis lupus familiaris; set-up: dose 5 mg/kg, dosed compound name [14C]LY2090314, route intravenous; details: in vivo, 0.5 h
[14] = tested on: Rattus norvegicus; assay: Total drug recovery in Sprague-Dawley rat at 5 mg/kg, iv administered for 30 mins during 0 to 24 hrs time interval by radio analysis; type: ADME, organism-based; set-up: dose 5 mg/kg, dosed compound name [14C]LY2090314, route intravenous; details: in vivo
[15] = species: Homo sapiens; assay: Drug recovery in cancer patient at 80 to 120 mg for 60 mins; type: ADME, organism-based; set-up: dosed compound name LY2090314; details: in vivo, 1 h
[16] = Clearance in cancer patient at 40 mg for 60 mins treated 1/8 cycle/day; type: ADME, organism-based; set-up: dosed compound name LY2090314; details: human, in vivo
[17] = Half life in cancer patient at 60 mg for 60 mins treated 1/8 cycle/day; type: ADME, organism-based; set-up: dosed compound name LY2090314; details: human, in vivo
[18] = Cmax in cancer patient at 20 mg for 60 mins treated 2/1 cycle/day; type: ADME, organism-based; set-up: dose 20 mg, dosed compound name LY2090314; details: human, in vivo
[19] = Plasma protein binding in cancer patient; type: ADME, cell-free; set-up: dosed compound name LY2090314; details: human, read-out: PPB (converted)
[20] = tested on: Canis familiaris; assay: Total drug recovery in beagle dog at 5 mg/kg, iv administered for 30 mins during 48 hrs time interval by radio analysis; type: ADME, organism-based, Canis lupus familiaris; set-up: dose 5 mg/kg, dosed compound name [14C]LY2090314, route intravenous; details: in vivo
[21] = tested on: Plasma; assay: Drug recovery in beagle dog plasma assessed as radiochemical peak area at 5 mg/kg, iv administered for 30 mins after 0.5 hrs by radio analysis; type: ADME, organism-based, Canis lupus familiaris; set-up: dose 5 mg/kg, dosed compound name [14C]LY2090314, route intravenous; details: in vivo
[22] = Half life in cancer patient at 20 mg for 60 mins treated 2/1 cycle/day; type: ADME, organism-based; set-up: dosed compound name LY2090314; details: human, in vivo
[23] = Drug recovery in bile duct-cannulated Sprague-Dawley rat assessed as radioactivity in bile during 0 to 24 hrs at 5 mg/kg, iv administered for 30 mins relative to dosed radioactivity; type: ADME, organism-based; set-up: dose 5 mg/kg, dosed compound name [14C]LY2090314, route intravenous; details: in vivo
[24] = tested on: Canis familiaris; assay: Clearance in beagle dog assessed as total radioactivity at 5 mg/kg, iv administered for 30 mins; type: ADME, organism-based, Canis lupus familiaris; set-up: dose 5 mg/kg, dosed compound name [14C]LY2090314, route intravenous; details: in vivo, 0.5 h
[25] = Half life in cancer patient at 20 mg for 60 mins treated 1/1 cycle/day; type: ADME, organism-based; set-up: dosed compound name LY2090314; details: human, in vivo
[26] = Half life in cancer patient at 40 mg for 60 mins treated 1/8 cycle/day; type: ADME, organism-based; set-up: dosed compound name LY2090314; details: human, in vivo
[27] = Tmax in cancer patient at 60 mg for 60 mins treated 1/8 cycle/day; type: ADME, organism-based; set-up: dosed compound name LY2090314; details: human, in vivo

## O=C1NC(=O)C(c2cnc3ccccn23)=C1c1cn2c3c(cc(F)cc13)CN(C(=O)N1CCCCC1)CC2 [LY-2090314]
[1]
  Compound recovery: 25.5%
[2]
  Tmax: 30 min
[3]
  half-life: 39.7 min
[4]
  Tmax: 30 min
[5]
  Drug metabolism: metabolite_detected
[6]
  Radiolabel recovery: 85.8%
[7]
  half-life: 21.5 min
[8]
  Drug metabolism: metabolite_not_detected
[9]
  Radiolabel recovery: 4.1%
[10]
  Vd: 82.1 L
[11]
  Cmax: 246 ng/mL
[12]
  Vd: 66 L
[13]
  Cmax: 7240 ng/mL
[14]
  Radiolabel recovery: 92.6%
[15]
  Compound recovery: 1.6%
[16]
  clearance: 710 mL/min
[17]
  half-life: 201 min
[18]
  Cmax: 271 ng/mL
[19]
  fraction unbound: 0.03
[20]
  Radiolabel recovery: 88%
[21]
  Radiolabel recovery: 82.76%
[22]
  half-life: 115 min
[23]
  Radiolabel recovery: 91.8%
[24]
  CL: 5.62 mL/min/kg
[25]
  half-life: 110 min
[26]
  half-life: 161 min
[27]
  Tmax: 55.2 min
